Results published in ChEMBL document CHEMBL1153654, “Synthesis and potential anxiolytic activity of 4-amino-pyrido[2,3-b]indoles” (Bioorg Med Chem Lett, 1993).

Assays:
[1] = target: GABA-A receptor; anion channel; experiment: Displacement of [3H]flunitrazepam from GABA-A central benzodiazepine receptor of mouse brain
Rattus norvegicus = experiment: Tested for minimum effective dose required to cause motor in coordination in Geller-Seifter model in CFY rats (route of administration is peroral 30 min before testing); type: functional; conditions: po, read-out: MED
[2] = target: GABA-A receptor; anion channel; experiment: Displacement of [35S]TBPS from GABA-A receptor complex at low umolar concentration; type: protein-complex assay
[3] = test system: GABA-A receptor; anion channel; experiment: Displacement of [35S]TBPS from GABA-A receptor complex at low umolar concentration (insoluble); type: protein-complex assay
[4] = test system: GABA-A receptor; anion channel; experiment: Displacement of [3H]flunitrazepam from GABA-A central benzodiazepine receptor of mouse brain (insoluble)

Compound | IC50 [1] [µM] | minimal effective dose (Rattus norvegicus) [mg/kg] | IC50 [2] [µM] | IC50 [3] | IC50 [4]
Cc1[nH]c2nc3ccccc3c-2c(N)c1C(N)=O | > 100 | > 50 | > 100 | – | –
COC(=O)c1c(C)nc2c(c1N)c1ccccc1n2C | > 100 | 10 | 14.6 | – | –
COP(=O)(OC)c1c(C)nc2c(c1N)c1ccccc1n2C | > 30 | > 20 | > 30 | – | –
COC(=O)c1c(C)[nH]c2nc3ccccc3c-2c1N | – | 5 | – | Insoluble | Insoluble
Cc1nc2c(c(N)c1C(=O)O)c1ccccc1n2C | > 100 | > 50 | > 100 | – | –
COC(=O)c1c(C)nc2c(c1N)c1ccccc1n2C(=O)OC | > 30 | 20 | 9.5 | – | –
CCOC(=O)c1c(C)nc2c(c1N)c1ccccc1n2Cc1ccccc1 | – | > 50 | – | Insoluble | Insoluble
C=CCOC(=O)c1c(C)nc2c(c1N)c1ccccc1n2C | > 100 | 20 | 3.8 | – | –
CN1C(=O)CN=C(c2ccccc2)c2cc(Cl)ccc21 [DIAZEPAM] | – | 2.5 | – | – | –
Cc1nc2c(c(N)c1C(=O)OCc1ccccc1)c1ccccc1n2C | > 30 | > 50 | > 30 | – | –
Cc1nc2c(c(N)c1CO)c1ccccc1n2C | > 100 | > 50 | > 100 | – | –
CNc1c(C(=O)OC)c(C)nc2c1c1ccccc1n2C | 82.3 | 20 | 17.1 | – | –
COC(=O)c1c(C)nc2c(c1N)c1ccccc1n2C1CCCC1 | > 100 | > 50 | 80 | – | –
COC(=O)c1c(-c2ccccc2)nc2c(c1N)c1ccccc1n2C | > 30 | 50 | 11.2 | – | –
COC(=O)c1c(C)nc2c(c1N)c1cc(Cl)ccc1n2C | – | 50 | – | Insoluble | Insoluble
CCOC(=O)c1c(C)nc2c(c1N)c1ccccc1n2C | > 100 | 10 | 4.6 | – | –
CCn1c2ccccc2c2c(N)c(C(=O)OC)c(C)nc21 | > 100 | 5 | 5.9 | – | –
CCCOC(=O)c1c(C)nc2c(c1N)c1ccccc1n2C | > 100 | 10 | 2.2 | – | –
